Test results from ChEMBL document CHEMBL4190164 (Medchemcomm, 2016).

Columns and labels:
[1] = target: Insulin-like growth factor 1 receptor (Homo sapiens, UniProt P08069); assay: Inhibition of recombinant human GST-tagged IGF1R expressed in baculovirus infected Sf9 insect cells using poly (Glu,Tyr) 4:1 as substrate after 60 mins in presence of [gamma33P]ATP by scintillation counting method
[2] = target: Epidermal growth factor receptor (Homo sapiens, UniProt P00533); assay: Inhibition of recombinant human GST-tagged wild-type EGFR expressed in baculovirus infected Sf9 insect cells using poly (Glu,Tyr) 4:1 as substrate after 60 mins in presence of [gamma33P]ATP by scintillation counting method
Hs-578T = assay: Growth inhibition of human Hs 578T cells at 10 uM after 48 hrs by sulforhodamine B assay relative to control; format: functional; details: read-out: GI
HOP-62 = assay: Growth inhibition of human HOP62 cells at 10 uM after 48 hrs by sulforhodamine B assay relative to control; format: functional; details: HOP-62, 48 h, read-out: GI
NCI-H460 = assay: Growth inhibition of human NCI-H460 cells at 10 uM after 48 hrs by sulforhodamine B assay relative to control; format: functional; details: NCI-H460, 48 h, read-out: GI
BT-549 = assay: Growth inhibition of human BT549 cells at 10 uM after 48 hrs by sulforhodamine B assay relative to control; format: functional; details: BT-549, 48 h, read-out: GI

Insulin-like growth factor 1 receptor, sequence (P08069 31-736 limits assumed): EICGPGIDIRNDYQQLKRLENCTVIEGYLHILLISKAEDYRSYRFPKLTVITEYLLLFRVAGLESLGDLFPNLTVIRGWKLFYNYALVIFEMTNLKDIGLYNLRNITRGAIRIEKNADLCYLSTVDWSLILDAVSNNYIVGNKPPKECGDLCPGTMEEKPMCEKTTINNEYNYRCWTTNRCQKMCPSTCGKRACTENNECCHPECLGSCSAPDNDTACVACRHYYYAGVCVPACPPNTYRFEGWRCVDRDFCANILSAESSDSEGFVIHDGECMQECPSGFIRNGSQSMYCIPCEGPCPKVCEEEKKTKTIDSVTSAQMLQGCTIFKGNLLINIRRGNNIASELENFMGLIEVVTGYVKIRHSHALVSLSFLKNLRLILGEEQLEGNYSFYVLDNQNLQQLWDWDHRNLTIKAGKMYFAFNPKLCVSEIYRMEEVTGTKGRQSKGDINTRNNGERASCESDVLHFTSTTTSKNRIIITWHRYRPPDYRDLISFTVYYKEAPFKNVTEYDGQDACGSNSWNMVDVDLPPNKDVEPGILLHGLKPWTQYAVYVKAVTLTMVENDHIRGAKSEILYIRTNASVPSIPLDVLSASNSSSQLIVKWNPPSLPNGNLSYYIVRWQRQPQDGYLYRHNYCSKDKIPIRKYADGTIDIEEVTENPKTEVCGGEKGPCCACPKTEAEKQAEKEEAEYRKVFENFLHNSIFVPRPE
Insulin-like growth factor 1 receptor, sequence (P08069 741-1367 limits assumed): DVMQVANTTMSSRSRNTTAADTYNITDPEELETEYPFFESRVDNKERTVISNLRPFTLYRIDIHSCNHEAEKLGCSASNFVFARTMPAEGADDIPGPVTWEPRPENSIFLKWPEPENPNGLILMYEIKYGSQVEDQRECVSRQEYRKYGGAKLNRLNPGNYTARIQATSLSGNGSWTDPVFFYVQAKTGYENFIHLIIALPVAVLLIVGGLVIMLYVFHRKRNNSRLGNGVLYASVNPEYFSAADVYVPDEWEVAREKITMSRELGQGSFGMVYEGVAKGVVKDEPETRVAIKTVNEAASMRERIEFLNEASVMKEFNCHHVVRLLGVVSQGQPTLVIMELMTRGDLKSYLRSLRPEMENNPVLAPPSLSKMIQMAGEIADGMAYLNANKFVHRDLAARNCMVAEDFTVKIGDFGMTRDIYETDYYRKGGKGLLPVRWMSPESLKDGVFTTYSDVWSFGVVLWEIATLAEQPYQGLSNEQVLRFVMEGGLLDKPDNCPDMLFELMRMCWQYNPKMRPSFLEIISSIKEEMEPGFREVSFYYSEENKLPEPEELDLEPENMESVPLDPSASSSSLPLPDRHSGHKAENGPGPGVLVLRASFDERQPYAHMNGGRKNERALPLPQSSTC
Epidermal growth factor receptor, sequence (P00533 whole entry): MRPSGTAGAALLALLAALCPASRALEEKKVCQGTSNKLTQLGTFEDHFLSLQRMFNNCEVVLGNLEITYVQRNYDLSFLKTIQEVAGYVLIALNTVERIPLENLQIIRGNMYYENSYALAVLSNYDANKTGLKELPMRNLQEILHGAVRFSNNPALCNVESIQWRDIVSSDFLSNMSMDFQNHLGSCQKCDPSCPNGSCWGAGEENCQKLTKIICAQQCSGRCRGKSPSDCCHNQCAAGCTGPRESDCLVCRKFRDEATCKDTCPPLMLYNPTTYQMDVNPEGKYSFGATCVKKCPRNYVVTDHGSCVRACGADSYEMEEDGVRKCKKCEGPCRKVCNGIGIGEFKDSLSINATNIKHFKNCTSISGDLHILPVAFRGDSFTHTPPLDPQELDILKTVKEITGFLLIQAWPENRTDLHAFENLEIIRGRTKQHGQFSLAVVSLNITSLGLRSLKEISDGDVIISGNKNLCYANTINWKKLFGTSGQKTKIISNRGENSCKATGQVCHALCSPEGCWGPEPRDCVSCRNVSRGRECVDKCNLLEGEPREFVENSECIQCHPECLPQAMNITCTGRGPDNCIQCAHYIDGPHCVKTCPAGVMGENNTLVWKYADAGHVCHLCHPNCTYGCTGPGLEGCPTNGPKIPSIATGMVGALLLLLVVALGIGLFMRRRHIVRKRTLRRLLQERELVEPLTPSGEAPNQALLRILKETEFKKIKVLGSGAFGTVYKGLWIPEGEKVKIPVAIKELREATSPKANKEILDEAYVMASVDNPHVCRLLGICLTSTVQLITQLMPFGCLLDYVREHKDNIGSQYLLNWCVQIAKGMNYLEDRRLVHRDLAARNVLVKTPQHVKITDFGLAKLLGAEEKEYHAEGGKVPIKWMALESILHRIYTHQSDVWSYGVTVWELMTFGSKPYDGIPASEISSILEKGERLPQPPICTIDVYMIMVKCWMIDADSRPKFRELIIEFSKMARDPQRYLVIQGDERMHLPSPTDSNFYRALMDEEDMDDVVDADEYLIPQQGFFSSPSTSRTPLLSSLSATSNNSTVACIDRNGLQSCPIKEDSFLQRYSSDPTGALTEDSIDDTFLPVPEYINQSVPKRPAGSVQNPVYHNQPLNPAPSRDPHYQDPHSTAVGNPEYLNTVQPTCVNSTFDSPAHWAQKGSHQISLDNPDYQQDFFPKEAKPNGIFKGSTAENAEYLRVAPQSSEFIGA

Structure (SMILES)	Ki [1]	Ki [2]	other results
Nc1ccc2oc3nccc(NCc4ccc(Br)cc4)c3c2c1	–	–	IC50 [2]: > 1000 µM; IC50 [1]: > 1000 µM
O=[N+]([O-])c1ccc2oc3nccc(NCc4ccc(Cl)cc4)c3c2c1	3.54 µM	2.52 µM	–
Nc1ccc2oc3nccc(NCc4cccc(Cl)c4)c3c2c1	4.6 µM	0.4 µM	–
Nc1cccc(CNc2ccnc3oc4ccc([N+](=O)[O-])cc4c23)c1	6.18 µM	3.59 µM	–
Nc1cccc(CNc2ccnc3oc4ccc(N)cc4c23)c1	8.93 µM	0.94 µM	–
O=[N+]([O-])c1ccc2oc3nccc(NCc4ccc(Br)cc4)c3c2c1	2.87 µM	0.81 µM	–
Nc1ccc2oc3nccc(NCc4ccc(Cl)cc4)c3c2c1	–	–	IC50 [2]: > 1000 µM; IC50 [1]: > 1000 µM
Nc1ccc2oc3nccc(NCc4cccc(Br)c4)c3c2c1	–	0.23 µM	inhibition of growth at 10 µM (Hs-578T): 16%; inhibition of growth at 10 µM (HOP-62): 18%; inhibition of growth at 10 µM (NCI-H460): 23%; IC50 [1]: > 1000 µM; inhibition of growth at 10 µM (BT-549): 29%
COc1ccc(CNc2ccnc3oc4ccc(N)cc4c23)cc1	–	–	IC50 [2]: > 1000 µM; IC50 [1]: > 1000 µM
COc1cccc(CNc2ccnc3oc4ccc([N+](=O)[O-])cc4c23)c1	4.56 µM	2.74 µM	–
COc1cccc(CNc2ccnc3[nH]c4ccc(N)cc4c23)c1	3.56 µM	0.32 µM	–
COc1ccc(CNc2ccnc3oc4ccc([N+](=O)[O-])cc4c23)cc1	3.4 µM	2.05 µM	–

Continued by falling Ki [1], values first:

Ki [1]	Ki [2]	Structure (SMILES)	other results
2.85 µM	1.36 µM	O=[N+]([O-])c1ccc2oc3nccc(NCc4cccc(Cl)c4)c3c2c1	–
2.61 µM	0.68 µM	O=[N+]([O-])c1ccc2oc3nccc(NCc4cccc(Br)c4)c3c2c1	–
2.39 µM	0.93 µM	O=[N+]([O-])c1cccc(CNc2ccnc3oc4ccc([N+](=O)[O-])cc4c23)c1	–
2.1 µM	0.11 µM	Nc1ccc2[nH]c3nccc(NCc4cccc(Br)c4)c3c2c1	–
1.92 µM	0.14 µM	Nc1ccc2[nH]c3nccc(NCc4cccc(Cl)c4)c3c2c1	–
1.03 µM	–	COc1ccc(CNc2ccnc3oc4ccccc4c23)cc1	–
0.89 µM	0.33 µM	COc1cccc(CNc2ccnc3[nH]c4ccc([N+](=O)[O-])cc4c23)c1	–
0.54 µM	0.17 µM	COc1cccc(CNc2ccnc3oc4ccc(N)cc4c23)c1	inhibition of growth at 10 µM (Hs-578T): 16%; inhibition of growth at 10 µM (HOP-62): 28%; inhibition of growth at 10 µM (NCI-H460): 29%; inhibition of growth at 10 µM (BT-549): 43%
0.32 µM	0.11 µM	O=[N+]([O-])c1ccc2[nH]c3nccc(NCc4cccc(Br)c4)c3c2c1	–
0.28 µM	0.08 µM	O=[N+]([O-])c1ccc2[nH]c3nccc(NCc4cccc(Cl)c4)c3c2c1	inhibition of growth at 10 µM (Hs-578T): 82%; inhibition of growth at 10 µM (HOP-62): 89%; inhibition of growth at 10 µM (NCI-H460): 73%; inhibition of growth at 10 µM (BT-549): 30%
